# Test system: Colo205 human colon carcinoma cell line
# Experiment: In vitro tumor cell proliferation assay (MTS, CellTiter 96 Aqueous One Solution)
# Format: cell-based
# Details: COLO 205, Colo205 cells, 72 hours compound exposure, MTS absorbance at 490 nm, read-out: IC50 (concentration of test compound required to inhibit proliferation of 50% of the cells)
# Method: In Vitro Tumor Cell Proliferation Assay
# The adherent H460 human non-small cell lung carcinoma and Colo205 human colon carcinoma cell lines were purchased from the American Type and Culture Collection (ATCC, Manassas, Va.) and maintained in RPMI-1640 growth media supplemented with 10% heat inactivated fetal bovine serum (Gibco, Invitrogen Corp. Grand Island, N.Y.). At 37° C. in a humidified atmosphere of 5% CO2.
# The CellTiter 960 Aqueous One Solution kit, MTS, (Promega, Madison, Wis.) was used to measure proliferation of tumor cell lines in vitro. This method monitors the bioreduction of a tetrazolium dye as a measure of cell viability. On Day 0, exponentially growing cells were trypsinized, resuspended in RPMI-1640 growth media supplemented with 10% FCS, 100 u/ml of penicillin G and 100 ug/ml of streptomycin sulfate, and seeded at 2000 cells per well into 96 well microtiter plates. Cells were incubated overnight in a humidified atmosphere of 5% CO2 at 37° C. On Day 1, serial dilutions of compounds were prepared at 2× the finial assay concentration. One hundred microliters of 2× solution was added to test wells in duplicate and control wells received no test compound. The final drug concentration ranged from 0 to 10-20 um in a 5 point dose-response curve. Cells were incubated in the presence of test compounds in a humidified atmosphere of 5% CO2 at 37° C. for 72 hours. After 72 hours of compound exposure, 40 ul of Promega CellTiter 960 Aqueous One Solution was added to each well and absorbance at 490 n-M was measured using a multi-well plate reader. Percent inhibition of proliferation was calculated using the following formula: 100×(1−Absorbancetreated−Background/(Absorbancecontrol−Background)
# Absorbancetreated=absorbance at 490 nm in test wells, cells with test compound
# Absorbancecontrol=absorbance at 490 nm in control wells, cells with no test compound
# Background=absorbance 490 nm in wells containing media and no cells
# The concentration of test compound required to inhibit proliferation of 50% of the cells (IC50) was determined by linear regression analysis.
# Representative compounds of the invention were tested in the above-described Colo205 human colon carcinoma cell line in vitro assay and found to inhibit human colon carcinoma cell proliferation, and are summarized as follows: […]
row,SMILES,IC50 [nM]
1,"COc1c(N2CCN(c3ccccc3F)CC2)c(F)cc2c(=O)c(C(=O)O)cn(-c3ccc(CN4CCCC4)cc3)c12 [Example 75, 6-fluoro-7-[4-(2-fluorophenyl)piperazin-1-yl]-8-methoxy-4-oxo-1-[4-(pyrrolidin-1-ylmethyl)phenyl]-1,4-dihydroquinoline-3-carboxylic acid]",500 to 2000
2,"COc1c(N2CCN(c3ccccn3)CC2)c(F)cc2c(=O)c(C(=O)O)cn(-c3ccc(CN4CCCCC4)cc3)c12 [Example 194, 6-fluoro-8-methoxy-4-oxo-1-(4-piperidin-1-ylmethyl-phenyl)-7-(4-pyridin-2-yl-piperazine-1-yl]-1,4-dihydroquinoline-3-carboxylic acid]",< 500
3,"O=C(O)c1cn(-c2ccc(CN3CCCC3)nc2)c2c(Cl)c(N3CCN(c4ccccn4)CC3)c(F)cc2c1=O [Example 34, 8-chloro-6-fluoro-4-oxo-7-(4-pyridin-2-yl-piperazin-1-yl)-1-[6-(pyrrolidin-1-ylmethyl)pyridin-3-yl]-1,4-dihydroquinoline-3-carboxylic acid]",500 to 2000
4,"O=C(O)c1cn(-c2cccc(CN3CCCCC3)c2)c2c(Cl)c(N3CCN(c4ccccc4F)CC3)c(F)cc2c1=O [Example 63, 8-chloro-6-fluoro-7-[4-(2-fluorophenyl)-piperazin-1-yl]-4-oxo-1-[3-(piperidin-1-ylmethyl)phenyl]-1,4-dihydroquinoline-3-carboxylic acid]",2000 to 20000
5,"COc1c(N2CCN(c3cccc(F)c3)CC2)c(F)cc2c(=O)c(C(=O)O)cn(-c3ccc(CN4CCCC4)cc3)c12 [Example 85, 6-fluoro-7-[4-(3-fluorophenyl)piperazin-1-yl]-8-methoxy-4-oxo-1-[4-(pyrrolidin-1-ylmethyl)phenyl]-1,4-dihydroquinoline-3-carboxylic acid]",< 500
6,"O=C(O)c1cn(-c2ccc(CN3CCCC3)cc2)c2c(Cl)c(N3CCN(c4ccc(F)cc4F)CC3)c(F)cc2c1=O [Example 8, 8-chloro-7-[4-(2,4-difluorophenyl)piperazin-1-yl]-6-fluoro-4-oxo-1-[4-(pyrrolidin-1-ylmethyl)phenyl]-1,4-dihydroquinoline-3-carboxylic acid]",500 to 2000
7,"O=C(O)c1cn(-c2ccc(CN3CCCC3)nc2)c2c(Cl)c(N3CCN(c4ccc(F)cc4)CC3)c(F)cc2c1=O [Example 37, 8-chloro-6-fluoro-7-[4-(4-fluorophenyl)-piperazin-1-yl]-4-oxo-1-[6-(pyrrolidin-1-ylmethyl)pyridin-3-yl]-1,4-dihydroquinoline-3-carboxylic acid]",< 500
8,"N#Cc1cccnc1N1CCN(c2c(F)cc3c(=O)c(C(=O)O)cn(-c4ccc(CN5CCCC5)cc4)c3c2Cl)CC1 [Example 7, 8-chloro-7-[4-(3-cyanopyridin-2-yl)piperazin-1-yl]-6-fluoro-4-oxo-1-[4-(pyrrolidin-1-ylmethyl)phenyl]-1,4-dihydroquinoline-3-carboxylic acid]",< 500
9,"CC(C)N(Cc1ccc(-n2cc(C(=O)O)c(=O)c3cc(F)c(N4CCN(c5ccccn5)CC4)c(Cl)c32)cc1)C1CCCCC1 [Example 174, 8-chloro-1-{4-[(2-cyclohexyl-isopropyl-amino)-methyl]-phenyl}-6-fluoro-4-oxo-7-(4-pyridin-2-yl-piperazine-1-yl)-1,4-dihydro-quinoline-3-carboxylic acid]",< 500
10,"O=C(O)c1cn(-c2ccc(CN3CCCC3)cc2)c2c(Cl)c(N3CCN(c4ncccn4)CC3)c(F)cc2c1=O [Example 6, 8-chloro-6-fluoro-4-oxo-7-(4-pyrimidin-2-ylpiperazin-1-yl)-1-[4-(pyrrolidin-1-ylmethyl)phenyl]-1,4-dihydroquinoline-3-carboxylic acid]",< 500

# Further lines, results first:
row,IC50 [nM],SMILES
1,2000 to 20000,"COc1c(N2CCN(c3ccc(C(F)(F)F)cc3)CC2)c(F)cc2c(=O)c(C(=O)O)cn(-c3ccc(CN(C)C)cc3)c12 [Example 100, 1-{4-[(dimethylamino)methyl]phenyl}-6-fluoro-8-methoxy-4-oxo-7-{4-[4-(trifluoromethyl)phenyl]piperazin-1-yl}-1,4-dihydroquinoline-3-carboxylic acid]"
2,< 500,"CCN(CC)Cc1ccc(-n2cc(C(=O)O)c(=O)c3cc(F)c(N4CCN(c5ccccc5)CC4)c(OC(F)(F)F)c32)cc1 [Example 138, 1-{4-[(diethylamino)methyl]phenyl}-6-fluoro-4-oxo-7-(4-phenylpiperazin-1-yl)-8-(trifluoromethoxy)-1,4-dihydroquinoline-3-carboxylic acid]"
3,2000 to 20000,"CON(C)Cc1ccc(-n2cc(C(=O)O)c(=O)c3cc(F)c(N4CCN(c5ccccc5C#N)CC4)c(Cl)c32)cc1 [Example 53, 8-chloro-7-[4-(2-cyanophenyl)piperazin-1-yl]-6-fluoro-1-(4-{[methoxy(methyl)amino]methyl}phenyl)-4-oxo-1,4-dihydroquinoline-3-carboxylic acid]"
4,500 to 2000,"CCN(CC)Cc1ccc(-n2cc(C(=O)O)c(=O)c3cc(F)c(N4CCN(c5ccccc5[N+](=O)[O-])CC4)c(OC)c32)cc1 [Example 107, 1-{4-[(diethylamino)methyl]phenyl}-6-fluoro-8-methoxy-7-[4-(2-nitrophenyl)piperazin-1-yl]-4-oxo-1,4-dihydroquinoline-3-carboxylic acid]"
5,< 500,"CN(C)Cc1ccc(-n2cc(C(=O)O)c(=O)c3cc(F)c(N4CCN(c5ccccn5)CC4)c(OC(F)(F)Cl)c32)cc1 [Example 154, 8-[chloro(difluoro)methoxy]-1-{4-[(dimethylamino)methyl]phenyl}-6-fluoro-4-oxo-7-(4-pyridin-2-ylpiperazin-1-yl)-1,4-dihydroquinoline-3-carboxylic acid]"
6,< 500,"CCN(CC)Cc1ccc(-n2cc(C(=O)O)c(=O)c3cc(F)c(N4CCN(c5ccc(C(C)=O)cc5)CC4)c(OC)c32)cc1 [Example 116, 7-[4-(4-acetylphenyl)piperazin-1-yl]-1-{4-[(diethylamino)methyl]phenyl}-6-fluoro-8-methoxy-4-oxo-1,4-dihydroquinoline-3-carboxylic acid]"
7,< 500,"CCN(CC)Cc1ccc(-n2cc(C(=O)O)c(=O)c3cc(F)c(N4CCN(c5ccc(F)cc5F)CC4)c(OC(F)(F)F)c32)cc1 [Example 137, 1-{4-[(diethylamino)methyl]phenyl}-7-[4-(2,4-difluorophenyl)piperazin-1-yl]-6-fluoro-4-oxo-8-(trifluoromethoxy)-1,4-dihydroquinoline-3-carboxylic acid]"
8,2000 to 20000,"CON(C)Cc1ccc(-n2cc(C(=O)O)c(=O)c3cc(F)c(N4CCN(c5ccc(F)cc5)CC4)c(Cl)c32)cc1 [Example 51, 8-chloro-6-fluoro-7-[4-(4-fluorophenyl)-piperazin-1-yl]-1-(4-{[methoxy(methyl)amino]methyl}phenyl)-4-oxo-1,4-dihydroquinoline-3-carboxylic acid]"
9,500 to 2000,"COc1c(N2CCN(c3ccccc3F)CC2)c(F)cc2c(=O)c(C(=O)O)cn(-c3ccc(CN(C)C)cc3)c12 [Example 94, 1-{4-[(dimethylamino)methyl]phenyl}-6-fluoro-7-[4-(2-fluorophenyl)piperazin-1-yl]-8-methoxy-4-oxo-1,4-dihydroquinoline-3-carboxylic acid]"
10,< 500,"CCN(CC)Cc1ccc(-n2cc(C(=O)O)c(=O)c3cc(F)c(N4CCN(c5cccc(Cl)c5)CC4)c(OC(F)(F)F)c32)cc1 [Example 136, 7-[4-(3-chlorophenyl)piperazin-1-yl]-1-{4-[(diethylamino)methyl]phenyl}-6-fluoro-4-oxo-8-(trifluoromethoxy)-1,4-dihydroquinoline-3-carboxylic acid]"
11,< 500,"N#Cc1cccnc1N1CCN(c2c(F)cc3c(=O)c(C(=O)O)cn(-c4ccc(CN5CCCC5)cc4)c3c2OC(F)(F)F)CC1 [Example 125, 7-[4-(3-cyanopyridin-2-yl)piperazin-1-yl]-6-fluoro-4-oxo-1-[4-(pyrrolidin-1-ylmethyl)phenyl]-8-(trifluoromethoxy)-1,4-dihydroquinoline-3-carboxylic acid]"
12,500 to 2000,"O=C(O)c1cn(-c2cccc(CN3CCCCC3)c2)c2c(OC(F)(F)F)c(N3CCN(c4cccc(Cl)c4)CC3)c(F)cc2c1=O [Example 145, 7-[4-(3-chlorophenyl)piperazin-1-yl]-6-fluoro-4-oxo-1-[3-(piperidin-1-ylmethyl)phenyl]-8-(trifluoromethoxy)-1,4-dihydroquinoline-3-carboxylic acid]"
13,< 500,"CCN(C)Cc1ccc(-n2cc(C(=O)O)c(=O)c3cc(F)c(N4CCN(c5ncccc5C#N)CC4)c(OC(F)(F)Cl)c32)cc1 [Example 166, 8-[chloro(difluoro)methoxy]-7-[4-(3-cyanopyridin-2-yl)piperazin-1-yl]-1-(4-{[ethyl(methyl)amino]methyl}phenyl)-6-fluoro-4-oxo-1,4-dihydroquinoline-3-carboxylic acid]"
